Each structure is given as a SMILES string.

In assay [1] the test system is Human airway smooth muscle (HASM) cells. Kind of assay: Thrombin-induced proliferation of human airway smooth muscle (HASM) cells, cell number after 48 h. In kind it is cell-based. The following applies: for IC50: Homo sapiens, negative log of the concentration that reduces the thrombin-induced proliferative response by 50%, pIC50 of 4.00 = inactive, read-out: HASM-Thr pIC50 (converted); for HASM- Thr pIC25 / HASM- Thr pIC75: two site model, thrombin-induced proliferation; for HASM- Thr pIC25: first phase (inhibition up to 50%); for HASM- Thr pIC75: second phase (inhibition up to 100%). The procedure:
Human airway smooth muscle (HASM) cells were cultured from macroscopically normal bronchi (0.5-2 cm diameter) obtained from lung resection or heart-lung transplant specimens provided by the Alfred Hospital (Melbourne) according to methods published in detail previously (Fernandes et al., 1999).
Approximately 0.1 g of smooth muscle was stripped from the wall of the bronchus for each cell culture. Dissected tissue was immersed in Dulbecco's modified Eagle's medium (DMEM) (Flow Laboratories, Scotland), supplemented with 100 U/mL penicillin G (CSL, Australia) and 100 ug/mL streptomycin (CSL, Australia). The tissue was rinsed in phosphate buffered saline (PBS; Oxoid, England) and the airway smooth muscle was chopped into 2 mm^3 pieces and digested for 2 hours in DMEM containing elastase (0.5 mg/mL: Worthington Biochemical, USA) followed by a 12 hour incubation in DMEM containing collagenase (1 mg/mL) (Worthington Biochemical, USA), at 37° C. with agitation.
The resulting cell suspension was centrifuged and washed three times in phosphate buffered saline (PBS). Following the last centrifugation step, the cells were resuspended in 25 mL of DMEM supplemented with L-glutamine (2 mM: Sigma, USA), penicillin G (100 U/mL), streptomycin (100 μg/mL), amphotericin B (2 μg/mL: Wellcome, UK) and heat-inactivated FCS (10% v/v: CSL, Australia) and seeded into 25 cm^2 culture flasks. The primary isolates were incubated for 7 to 14 days to reach confluence.
Cells were harvested weekly by 10 min exposure to trypsin (0.5%: CSL, Australia) and EDTA (1 mM in PBS: BDH, Australia) and passaged at a 1:3 ratio into 75 cm^2 flasks.
The activity of the compounds has been established in cell culture by exploring their effects on mitogen-induced increases in cell number. We investigated the effects of 2MEO and its analogues, 4NO and 4NOM, on the proliferation of HASM cells in response to the proliferative stimulus of either thrombin of basic fibroblast growth factor (bFGF). Cells were seeded onto 6-well plates at a density of 1.5×10^4 cells cm^2, made quiescent by removal of serum-containing media for 24 hours and then stimulated for 48 h with either thrombin (0.3 U/ml) or bFGF (300 pM). The test compounds were pre-incubated with HASM cells for 30 minutes before the addition of thrombin. At the end of the 48 hour incubation period, cells were detached from the culture plate by trypsin (0.5% w/v in PBS containing 1 mM EDTA), incubated for 5 minutes at ambient temperature in PBS containing 0.5% (w/v) trypan blue, washed twice (2% FCS in PBS), isolated by centrifugation (12,000×g, 5 min) and resuspended in 200 μl 2% FCS in PBS for counting in a haemocytometer chamber.
Data are expressed as a percentage of the cell number in vehicle treated wells and are presented as the mean and standard error of the mean.
The potency of the compounds in regulating thrombin-induced proliferation of human airway smooth muscle (HASM) was assessed in cells maintained in culture as described above. The potencies are presented as pIC50 values (Column A of Table 4) denoting the negative log of the concentration that reduces the proliferative response by 50%. […] When the single phase model was determined to be more appropriate, the values of pIC25 and pIC75 were not calculated or shown in the table.

Assay [2] deals with T1, Estrogen Receptor (ER) (Rattus norvegicus, UniProt P06211).
T1 construct: using rat uterine cytosol as a source of ER; from tissue; host or cells: rat uterus, cytosol fraction (30000 x g supernatant)
T1 sequence (P06211 1-600): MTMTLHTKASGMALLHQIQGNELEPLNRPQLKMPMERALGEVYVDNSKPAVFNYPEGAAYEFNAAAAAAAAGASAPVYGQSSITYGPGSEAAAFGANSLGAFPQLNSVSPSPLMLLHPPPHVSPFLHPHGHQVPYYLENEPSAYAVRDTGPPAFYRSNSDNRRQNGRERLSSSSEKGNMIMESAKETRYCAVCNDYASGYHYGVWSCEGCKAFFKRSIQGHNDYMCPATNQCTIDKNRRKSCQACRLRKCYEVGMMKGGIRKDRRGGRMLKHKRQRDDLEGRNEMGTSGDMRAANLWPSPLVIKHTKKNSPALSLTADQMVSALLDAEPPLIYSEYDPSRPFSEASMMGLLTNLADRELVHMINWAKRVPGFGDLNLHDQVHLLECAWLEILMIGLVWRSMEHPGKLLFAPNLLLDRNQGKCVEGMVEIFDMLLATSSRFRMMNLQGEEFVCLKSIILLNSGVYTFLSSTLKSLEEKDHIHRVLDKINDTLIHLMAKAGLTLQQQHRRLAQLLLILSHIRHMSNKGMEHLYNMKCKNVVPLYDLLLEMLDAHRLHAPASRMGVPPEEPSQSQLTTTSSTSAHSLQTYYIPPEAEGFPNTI
Kind of assay: Estrogen receptor binding assay, 3H-estradiol displacement from rat uterine cytosol. The following applies: 3H-estradiol displacement, cytosolic preparations of rat uterus; pIC50 of 4.00 = inactive; read-out: ER-RLB pIC50 (converted). On the procedure:
Uteri (6-10 per batch) were isolated from Brown Norway rats (250-350g), washed free from blood in saline and homogenised in 10 mM Tris buffer (pH 7.4, 1.5 mM EDTA, 10% w/v glycerol, 1 mM phenylmethylsulfonylfluoride) using an Ultra Turrax homogeniser for 3 by 15 s bursts with intervals of 1 min on ice.
Nuclear material and cellular debris were removed by centrifugation at 750×g at 4° C. for 10 min (Sorvall RT7); the cytosol component was prepared by centrifugation at 30000×g for 120 min at 4° C. in a Beckman JM1 centrifuge. The cytosol was diluted to approximately 1 mg/ml protein (rat uterine extract) determined using the Bradford method (Biorad).
Separation of bound from free radioligand was achieved by the addition of 500 μL of dextran-coated charcoal (400 mg dextran clinical grade C and 2g of charcoal, Norit A in 100 mL of Tris buffer) and centrifugation at 4° C. in a Sorval RT7 at 2000×g for 10 min.

With `COc1cccc(CO/N=C2\C[C@@H]3[C@H](CC[C@]4(C)/C(=N/O)CC[C@@H]34)c3cc(OC)c(O)cc32)c1` [CP-DM-4-66, 2-methoxy-6-(3-methoxybenzyloxy)iminoestrone-17-oxime], in assay [1], the IC50 was 10000 nM.
In the case of `COc1cc2c(cc1O)/C(=N/OCc1ccc(OC(F)(F)F)cc1)C[C@@H]1[C@@H]2CC[C@]2(C)[C@@H](O)CC[C@@H]12` [CP-DM-4-64, 2-methoxy-6-(4-trifluoromethoxybenzyloxy)iminoestradiol], in assay [2], the IC50 is 1580 nM. In addition, in assay [1], the IC50 is 2450 nM, the “HASM- Thr pIC25” value came out at 6.56 and the “HASM- Thr pIC75” value is 4.81.
Take `CO/N=C1\CC[C@H]2[C@@H]3C/C(=N\OCc4ccc([N+](=O)[O-])cc4)c4cc(O)c(OC)cc4[C@H]3CC[C@]12C` [CP-DM-4-75, 6-(4-nitrobenzyloxy)imino-2-methoxyestrone-17-methyloxime]: the IC50 in assay [1] was 2570 nM.
For `COc1cc2c(cc1O)/C(=N/OCc1cccc(C#N)c1)C[C@@H]1[C@@H]2CC[C@]2(C)[C@@H](O)CC[C@@H]12` [CP-DM-4-52, 2-methoxy-6-(3-cyanobenzyloxy)iminoestradiol], the IC50 was 398 nM in assay [2] and 955 nM in assay [1].
With `COc1cc2c(cc1O)/C(=N/OCc1ccccc1[N+](=O)[O-])C[C@@H]1[C@@H]2CC[C@]2(C)[C@@H](O)CC[C@@H]12` [CP-DM-3-124, 2-methoxy-6-(2-nitrobenzyloxy)iminoestradiol], the IC50 in assay [2] is 891 nM. Further, in assay [1], the IC50 is 44.7 nM, the “HASM- Thr pIC25” value is recorded as 9.35 and the “HASM- Thr pIC75” value was determined as 6.36.
In the case of `C#C[C@]1(O)CC[C@H]2[C@@H]3C/C(=N\OCc4ccc([N+](=O)[O-])cc4)c4cc(O)ccc4[C@H]3CC[C@@]21C` [CP-DM-4-89, 6-(4-nitrobenzyloxy)imino-17-ethinyl-estradiol], in assay [2], the IC50 was 5620 nM.
Turning to `COc1cc2c(cc1O)/C(=N/OCc1cccc(OC(F)(F)F)c1)C[C@@H]1[C@@H]2CC[C@]2(C)[C@@H](O)CC[C@@H]12` [CP-DM-4-63, 2-methoxy-6-(3-trifluoromethoxybenzyloxy)iminoestradiol], in assay [2], the IC50 is 135 nM. In addition, in assay [1], the IC50 was 347 nM, the “HASM- Thr pIC25” value was 7.70 and the “HASM- Thr pIC75” value came to 5.62.
In the case of `COc1cccc(CO/N=C2\C[C@@H]3[C@H](CC[C@]4(C)[C@@H](O)CC[C@@H]34)c3cc(OC)c(O)cc32)c1` [CP-DM-4-62, 2-methoxy-6-(3-methoxybenzyloxy)iminoestradiol], in assay [2], the IC50 was 1000 nM. In addition, in assay [1], the IC50 is 2190 nM, the “HASM- Thr pIC25” value stood at 5.69 and the “HASM- Thr pIC75” value was 5.63.
Regarding `COc1cc2c(cc1O)/C(=N/OCc1cccc(C(F)(F)F)c1)C[C@@H]1[C@@H]2CC[C@]2(C)/C(=N/O)CC[C@@H]12` [CP-DM-3-118, 2-methoxy-6-(3-trifluoromethylbenzyloxy)iminoestrone-17-oxime], the IC50 in assay [2] is 20900 nM; in assay [1], 2950 nM.
As for `COc1cc2c(cc1O)/C(=N/OCc1ccc(C#N)cc1)C[C@@H]1[C@@H]2CC[C@]2(C)[C@@H](O)CC[C@@H]12` [CP-DM-4-37, 6-(4-cyanobenzyloxy)imino-2-methoxyestradiol], the IC50 in assay [2] was 6460 nM; in assay [1], 12900 nM.
As for `COc1cc2c(cc1O)/C(=N/OCc1ccncc1)C[C@@H]1[C@@H]2CC[C@]2(C)[C@@H](O)CC[C@@H]12` [CP-DM-4-16, 2-methoxy-6-(4-pyridylmethyloxy)iminoestradiol], in assay [1], the IC50 was 1450 nM, the “HASM- Thr pIC25” value is recorded as 6.57 and the “HASM- Thr pIC75” value is 5.19.
With `C[C@]12CC[C@@H]3c4ccc(O)cc4/C(=N/OCc4cc(F)cc(F)c4)C[C@H]3[C@@H]1C[C@@H](O)[C@@H]2O` [CP-DM-4-88, 6-(3,5-difluorobenzyloxy)iminoestriol], the IC50 in assay [1] is 15800 nM.
Regarding `COc1cc2c(cc1O)/C(=N/OCc1cccc(C#N)c1)C[C@@H]1[C@@H]2CC[C@]2(C)/C(=N/O)CC[C@@H]12` [CP-DM-4-51, 2-methoxy-6-(3-cyanobenzyloxy)iminoestrone-17-oxime], the IC50 in assay [2] is 34700 nM. In assay [1], the IC50 was 4370 nM, the “HASM- Thr pIC25” value is given as 5.46 and the “HASM- Thr pIC75” value was 5.26.
On to `COc1cc2c(cc1O)/C(=N/OCc1cccc(OC(F)(F)F)c1)C[C@@H]1[C@@H]2CC[C@]2(C)/C(=N/O)CC[C@@H]12` [CP-DM-4-67, 2-methoxy-6-(3-trifluoromethoxybenzyloxy)iminoestrone-17-oxime], for which the IC50 in assay [1] was 10000 nM.
As for `COc1cc2c(cc1O)/C(=N/OCc1ccc(C)cc1)C[C@@H]1[C@@H]2CC[C@]2(C)/C(=N/O)CC[C@@H]12` [CP-DM-4-76, 2-methoxy-6-(4-methylbenzyloxy)iminoestrone-17-oxime], the IC50 in assay [1] is 4270 nM.

The values are drawn from patent US20070275935A1, “Estratriene Derivatives” (priority 2003, published 2007).
